System: mosquitoes
Assay: WHO cone test of treated, washed polyester nettings (knockdown, 24-hour mortality)
Type: in vivo
Details: polyester nettings treated with insecticide composition comprising a binder of example A and the N-arylhydrazine derivative; after Montpellier washing; 3 min cone exposure
Description: The long-lasting insecticidal treatment was performed with aqueous dispersions according to examples A1-A17 on commercially available white polyester netting material (fiber titer 75 denier, 156 mesh, weight 28-32 g/m^2) without prior washing. The aqueous treatment baths were prepared by mixing the aqueous dispersions with emulsions of N-ethyl-2,2-dimethylpropionamide-2-(2,6-dichloro-α,α,α-trifluoro-p-tolyl)-hydrazone and N-ethyl-2,2-dichloro-1-methylcyclo-propanecarboxamide-2-(2,6-dichloro-α,α,α-tri-fluoro-p-tolyl)hydrazone, respectively, setting pH with buffer solutions and adding a fixative (if needed). The concentrations of the treatment baths were adjusted according to the liquor uptake possible (LU between 60 and 100%). The treatment baths were applied by using a padder-stenter equipment on a laboratory scale (Mathis AG, Switzerland). The netting material is fully immersed into the treatment bath and excess liquor is removed by passing it through cylinders which move in counter-direction. By choosing a defined distance between these cylinders (and thus a defined pressure) the liquor uptake can be controlled. The liquor uptake is measured by weighing an impregnated piece of netting and subtracting the weight of the dry, untreated netting and is given as % weight of liquor on weight of netting. […]

Row | SMILES | activity (knockdown, mortality) after washing of the nettings
1 | CCN/C(=N\Nc1c(Cl)cc(C(F)(F)F)cc1Cl)C(C)(C)C [Ia-I, N-ethyl-2,2-dimethylpropionamide-2-(2,6-dichloro-α,α,α-trifluoro-p-tolyl)-hydrazone] | show an activity
2 | CCN/C(=N\Nc1c(Cl)cc(C(F)(F)F)cc1Cl)C1(C)CC1(Cl)Cl (stereo not drawn) [Ia-II, N-Ethyl-2,2-dichloro-1-methylcyclo-propanecarboxamide-2-(2,6-dichloro-α,α,α-tri-fluoro-p-tolyl)hydrazone] | show an activity

Reference: US20080199606A1, “Composition for the Impregnation of Fibers, Fabrics and Nettings Imparting a Protective Activity Against Pests” (BASF Aktiengesellschaft, priority 2005, published 2008)
